From patent US20170348269A1, “TREATMENT OF UREA CYCLE DISORDERS IN NEONATES AND INFANTS” (Horizon Therapeutics, LLC, priority 2016, published 2017)

Legend:
Type in all cases: in vivo, human
[1] = test system: blood ammonia in pediatric patients with UCDs; experiment: HPN-100-012 open-label fixed sequence switch-over study, blood ammonia control
Description: HPN-100-012, an open-label, fixed sequence, switch-over study of the safety, PK and efficacy of HPN-100 compared to NaPBA in patients with UCDs, with a 12-month safety extension part. […] After review of all the safety data by the DSMB, 8 additional subjects were enrolled in the study after the switch-over phase was completed. The primary efficacy endpoint was the 24-hour AUC (area under the curve) for blood ammonia on Day 1 compared with Day 10.

[2] = HPN-100-012 switch-over study, pharmacokinetics of HPN-100 and NaPBA in pediatric UCD patients; conditions: HPN-100-012 (N = 15), TID with meals, arithmetic mean
Protocol: HPN-100-012, an open-label, fixed sequence, switch-over study of the safety, PK and efficacy of HPN-100 compared to NaPBA in patients with UCDs, with a 12-month safety extension part. The switch-over part of the study and the 12-month safety extension are complete. The switch-over part was conducted at 7 U.S. centers and enrolled 15 pediatric UCD patients between 29 days and <6 year of age, all of whom completed the study. After review of all the safety data by the DSMB, 8 additional subjects were enrolled in the study after the switch-over phase was completed. The primary efficacy endpoint was the 24-hour AUC (area under the curve) for blood ammonia on Day 1 compared with Day 10.
(§1) The pharmacokinetics of the short term studies can be summarized as follows. Mean exposure levels of HPN-100 metabolites PBA, PAA, and PAGN after doses of HPN-100 and NaPBA with meals (TID) in pediatric (29 days to 17 years of age) UCD patients in HPN-100-005 and HPN-100-012 studies are summarized below. The mean exposure to PBA, the parent metabolite, and mean exposure to PAGN, the terminal metabolite, show no systematic variation across age groups, while PAA exposure tended to decrease with increasing age, a finding consistent with those from population PK modeling which indicate that the rate of clearance/metabolism of PAA varies directly with body size. While systemic metabolite exposure, assessed as peak plasma concentration (Cmax) or AUC, is generally similar for HPN-100 and NaPBA, the minimum concentration (Cmin-ss) was higher—and/or percent-fluctuation less—for plasma PAGN, a finding consistent with slower gastrointestinal absorption of PBA when administered orally as HPN-100.

[3] = HPN-100-005 pharmacokinetics of HPN-100 and NaPBA in pediatric UCD patients; conditions: HPN-100-005 (N = 11)
Description: as §1

[4] = pediatric UCD patients, TID with meals, arithmetic mean

Plasma PAA % Fluctuation [2]: 1289%
Plasma PAA AUC0-24 [2]: 1458 µg·h/mL
Plasma PAA CLss/F [2]: 94249 mL/min
Plasma PAGN CLss/F [2]: 14360 mL/min
Plasma PBA CLss/F [2]: 112093 mL/min
Plasma PBA Cmin-ss [2]: 993 ng/mL
Plasma PAA CLss/F [3, 4]: 34391 mL/min
Plasma PBA CLss/F [3, 4]: 145463 mL/min
Plasma PAA Cmin-ss ([3]; pediatric UCD patients, TID with meals, arithmetic mean (CV %)): 674 ng/mL
U-PAGN Ae0-12 ([3]; urinary PAGN excreted 0-12 h, arithmetic mean): 7098020 µg
U-PAGN Ae12-24 ([3]; urinary PAGN excreted 12-24 h, arithmetic mean): 5414406 µg
Compound: O=C([O-])CCCc1ccccc1.[Na+] [NaPBA, sodium phenylbutyrate]
Mean blood ammonia at the 12-hour time point ([1]; HPN-100 Day 10, NaPBA Day 1, highest value for both treatments): 41.03 µmol/L
Mean blood ammonia at the 24-hour time point ([1]; NaPBA Day 1, lowest value on NaPBA): 34.66 µmol/L
U-PAGN Ae ([3]; urinary PAGN excreted, arithmetic mean): 12512426 µg
